Source: patent US12522594B2, “2-heteroaryl-3-oxo-2,3-dihydropyridazine-4-carboxamides for the treatment of cancer” (Deutsches Krebsforschungszentrum, priority 2017, dated 2026)

Tests used:
Type in all cases: cell-based
[1] = molecular target: T1, AHR (Homo sapiens, UniProt P35869); experiment: In vitro assay 2: agonism in human cell line (transactivation assay, U87 cells, DRE firefly luciferase reporter); parameters: host or cells: U87 glioblastoma cells, stably transfected with DRE firefly luciferase and renilla reporter constructs; conditions: no kynurenic acid, 20 hours, read-out: Assay 2: AHR-luc Hum Agonism IC50
T1 sequence (P35869 11-848): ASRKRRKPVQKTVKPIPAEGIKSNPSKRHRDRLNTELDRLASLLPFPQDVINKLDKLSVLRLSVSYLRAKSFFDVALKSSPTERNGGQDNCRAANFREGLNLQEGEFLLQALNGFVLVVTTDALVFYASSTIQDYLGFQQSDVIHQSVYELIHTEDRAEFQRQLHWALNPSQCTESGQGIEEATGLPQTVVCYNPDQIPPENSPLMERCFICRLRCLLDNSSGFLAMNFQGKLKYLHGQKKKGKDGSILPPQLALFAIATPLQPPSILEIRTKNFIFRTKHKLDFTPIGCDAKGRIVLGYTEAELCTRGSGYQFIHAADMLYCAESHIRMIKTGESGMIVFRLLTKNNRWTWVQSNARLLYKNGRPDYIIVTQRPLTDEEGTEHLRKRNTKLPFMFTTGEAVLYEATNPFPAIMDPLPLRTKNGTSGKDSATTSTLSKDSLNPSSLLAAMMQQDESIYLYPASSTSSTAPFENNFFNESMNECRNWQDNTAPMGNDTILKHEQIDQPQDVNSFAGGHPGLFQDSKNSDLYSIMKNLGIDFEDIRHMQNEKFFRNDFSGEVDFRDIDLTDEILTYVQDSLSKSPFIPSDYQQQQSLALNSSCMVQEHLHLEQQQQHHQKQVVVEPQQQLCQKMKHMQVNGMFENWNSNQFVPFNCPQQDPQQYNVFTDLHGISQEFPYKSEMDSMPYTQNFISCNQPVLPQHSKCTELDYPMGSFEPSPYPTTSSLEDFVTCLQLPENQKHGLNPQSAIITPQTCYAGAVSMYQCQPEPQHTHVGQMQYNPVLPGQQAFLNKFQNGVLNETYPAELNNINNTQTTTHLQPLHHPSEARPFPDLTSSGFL
Summary of the method: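 Agonist readout: DRE firefly luciferase, with constitutive renilla reporter, in stably transfected U87 cells expressing AHR endogenously. Normalization used positive control (300 uM kynurenic acid) and negative control.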

[2] = molecular target: T1, AHR; experiment: In vitro assay 1: antagonism in human cell line (transactivation assay, U87 cells prestimulated with kynurenic acid, DRE firefly luciferase reporter); parameters: host or cells: U87 glioblastoma cells, stably transfected with DRE firefly luciferase and renilla reporter constructs; conditions: 150 uM kynurenic acid, 20 hours, read-out: Assay 1: AHR-luc Hum Antagonism IC50
Summary of the method: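 Antagonism measured after kynurenic acid prestimulation in U87 cells that express AHR endogenously and stably harbor a firefly luciferase gene under DRE control plus a constitutive renilla construct. Positive and negative controls served for normalization.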

[3] = molecular target: T1, AHR; experiment: In vitro assay 3: AHR-regulated CYP1A1 expression in human cell line (U937, qPCR, KA stimulation); conditions: U937 cells, 200 uM KA, 6 hours, CYP1A1 expression by qPCR; read-out: Assay 3: Hum CYP1A1 Antagonism IC50
Summary of the method: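 U937 human monocytic cells were stimulated with 200 uM KA for 6 h, with or without compound at eight concentrations from 1 nM to 3 uM, in duplicate. CYP1A1 mRNA was quantified by Taqman qPCR as fold expression normalised to HPRT. Unstimulated cells served as negative control.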

Compound | IC50 [1] | IC50 [2] | IC50 [3]
C[C@@H](CO)NC(=O)c1cc(-c2ccc(Cl)cc2)nn(-c2cccnc2)c1=O [Example 68, 6-(4-Chlorophenyl)-N-[(2S)-1-hydroxypropan-2-yl]-3-oxo-2-(pyridin-3-yl)-2,3-dihydropyridazine-4-carboxamide] | > 20 µM | 0.0242 µM | 0.0218 µM
CC(C)(O)CNC(=O)c1cc(-c2ccc(Cl)cc2)nn(-c2cccnc2)c1=O [Example 71, 6-(4-Chlorophenyl)-N-(2-hydroxy-2-methylpropyl)-3-oxo-2-(pyridin-3-yl)-2,3-dihydropyridazine-4-carboxamide] | > 20 µM | 0.038 µM | 0.0607 µM
O=C(NC[C@H](O)CO)c1cc(-c2ccc(Cl)cc2)nn(-c2cccnc2)c1=O [Example 72, (−)-6-(4-Chlorophenyl)-N-[(2S)-2,3-dihydroxypropyl]-3-oxo-2-(pyridin-3-yl)-2,3-dihydropyridazine-4-carboxamide] | > 20 µM | 0.182 µM | 0.495 µM
O=C(NC[C@@H](O)CO)c1cc(-c2ccc(Cl)cc2)nn(-c2cccnc2)c1=O [Example 73, (+)-6-(4-Chlorophenyl)-N-[(2R)-2,3-dihydroxypropyl]-3-oxo-2-(pyridin-3-yl)-2,3-dihydropyridazine-4-carboxamide] | > 20 µM | 0.283 µM | 0.355 µM
C[C@@H](CO)NC(=O)c1cc(-c2ccc(Cl)cc2)nn(-c2cncc(F)c2)c1=O [Example 80, 6-(4-Chlorophenyl)-2-(5-fluoropyridin-3-yl)-N-[(2S)-1-hydroxypropan-2-yl]-3-oxo-2,3-dihydropyridazine-4-carboxamide] | > 20 µM | 0.0271 µM | 0.0326 µM
CC(C)(O)CNC(=O)c1cc(-c2ccc(Cl)cc2)nn(-c2cncc(F)c2)c1=O [Example 82, 6-(4-Chlorophenyl)-2-(5-fluoropyridin-3-yl)-N-(2-hydroxy-2-methylpropyl)-3-oxo-2,3-dihydropyridazine-4-carboxamide] | > 20 µM | 0.0376 µM | 0.0345 µM
O=C(N[C@H](CO)CF)c1cc(-c2ccc(Cl)cc2)nn(-c2cccnc2)c1=O [Example 93, (+)-6-(4-Chlorophenyl)-N-[(2R)-1-fluoro-3-hydroxypropan-2-yl]-3-oxo-2-(pyridin-3-yl)-2,3-dihydropyridazine-4-carboxamide] | > 20 µM | 0.0248 µM | 0.00432 µM
O=C(N[C@H](CO)C1CC1)c1cc(-c2ccc(C(F)(F)F)cc2)nn(-c2cccnc2)c1=O [Example 94, N-[(1S)-1-Cyclopropyl-2-hydroxyethyl]-3-oxo-2-(pyridin-3-yl)-6-[4-(trifluoromethyl)phenyl]-2,3-dihydropyridazine-4-carboxamide] | > 20 µM | 0.00844 µM | 0.0165 µM
O=C(N[C@H](CO)C(F)(F)F)c1cc(-c2ccc(Cl)cc2)nn(-c2cccnc2)c1=O [Example 96, (+)-6-(4-Chlorophenyl)-3-oxo-2-(pyridin-3-yl)-N-[(2R)-1,1,1-trifluoro-3-hydroxypropan-2-yl]-2,3-dihydropyridazine-4-carboxamide] | > 20 µM | 0.00367 µM | 0.00377 µM
O=C(N[C@H]1CCC[C@@H]1O)c1cc(-c2ccc(C(F)(F)F)cc2)nn(-c2cccnc2)c1=O [Example 102, N-[(1S,2S)-2-Hydroxycyclopentyl]-3-oxo-2-(pyridin-3-yl)-6-[4-(trifluoromethyl)phenyl]-2,3-dihydropyridazine-4-carboxamide] | > 20 µM | 0.00188 µM | 0.00169 µM
O=C(N[C@@H]1CCC[C@@H]1O)c1cc(-c2ccc(C(F)(F)F)cc2)nn(-c2cccnc2)c1=O [Example 103, N-[(1R,2S)-2-Hydroxycyclopentyl]-3-oxo-2-(pyridin-3-yl)-6-[4-(trifluoromethyl)phenyl]-2,3-dihydropyridazine-4-carboxamide] | > 20 µM | 0.0133 µM | 0.0245 µM
O=C(N[C@@H]1CCC[C@H]1O)c1cc(-c2ccc(C(F)(F)F)cc2)nn(-c2cccnc2)c1=O [Example 104, N-[(1R,2R)-2-Hydroxycyclopentyl]-3-oxo-2-(pyridin-3-yl)-6-[4-(trifluoromethyl)phenyl]-2,3-dihydropyridazine-4-carboxamide] | > 20 µM | 0.0202 µM | 0.0148 µM
O=C(N[C@H]1CCC[C@H]1O)c1cc(-c2ccc(C(F)(F)F)cc2)nn(-c2cccnc2)c1=O [Example 105, N-[(1S,2R)-2-Hydroxycyclopentyl]-3-oxo-2-(pyridin-3-yl)-6-[4-(trifluoromethyl)phenyl]-2,3-dihydropyridazine-4-carboxamide] | > 20 µM | 0.00237 µM | 0.00186 µM
O=C(N[C@H](CO)C(F)(F)F)c1cc(-c2ccc(C(F)(F)F)cc2)nn(-c2cccnc2)c1=O [Example 112, 3-Oxo-2-(pyridin-3-yl)-N-[(2R)-1,1,1-trifluoro-3-hydroxypropan-2-yl]-6-[4-(trifluoromethyl)phenyl]-2,3-dihydropyridazine-4-carboxamide] | > 20 µM | 0.00115 µM | 0.000905 µM
CC(C)(O)CNC(=O)c1cc(-c2ccc(C(F)(F)F)cc2)nn(-c2cccnc2)c1=O [Example 115, N-(2-Hydroxy-2-methylpropyl)-3-oxo-2-(pyridin-3-yl)-6-[4-(trifluoromethyl)phenyl]-2,3-dihydropyridazine-4-carboxamide] | > 20 µM | 0.00263 µM | 0.0109 µM
C[C@H](CO)NC(=O)c1cc(-c2ccc(C(F)(F)F)cc2)nn(-c2cccnc2)c1=O [Example 118, N-[(2R)-1-Hydroxypropan-2-yl]-3-oxo-2-(pyridin-3-yl)-6-[4-(trifluoromethyl)phenyl]-2,3-dihydropyridazine-4-carboxamide] | > 20 µM | 0.0451 µM | 0.057 µM
C[C@@H](CO)NC(=O)c1cc(-c2ccc(C(F)(F)F)cc2)nn(-c2cccnc2)c1=O [Example 119, N-[(2S)-1-Hydroxypropan-2-yl]-3-oxo-2-(pyridin-3-yl)-6-[4-(trifluoromethyl)phenyl]-2,3-dihydropyridazine-4-carboxamide] | > 20 µM | 0.00306 µM | 0.00572 µM
O=C(N[C@H]1CCCC[C@H]1O)c1cc(-c2ccc(Cl)cc2)nn(-c2cccnc2)c1=O [Example 125, 6-(4-Chlorophenyl)-N-[(1S,2R)-2-hydroxycyclohexyl]-3-oxo-2-(pyridin-3-yl)-2,3-dihydropyridazine-4-carboxamide] | > 20 µM | 0.00382 µM | 0.0044 µM
O=C(N[C@H]1CCCC[C@H]1O)c1cc(-c2ccc(OC(F)(F)F)cc2)nn(-c2cccnc2)c1=O [Example 126, N-[(1S,2R)-2-Hydroxycyclohexyl]-3-oxo-2-(pyridin-3-yl)-6-[4-(trifluoromethoxy)phenyl]-2,3-dihydropyridazine-4-carboxamide] | > 20 µM | 0.0046 µM | 0.00515 µM
O=C(N[C@H]1CCC[C@@H]1O)c1cc(-c2ccc(Cl)cc2)nn(-c2cccnc2)c1=O [Example 130, 6-(4-Chlorophenyl)-N-[(1S,2S)-2-hydroxycyclopentyl]-3-oxo-2-(pyridin-3-yl)-2,3-dihydropyridazine-4-carboxamide] | > 20 µM | 0.00654 µM | 0.00642 µM
O=C(N[C@H](CO)C(F)(F)F)c1cc(-c2ccc(OC(F)(F)F)cc2)nn(-c2cccnc2)c1=O [Example 134, 3-Oxo-2-(pyridin-3-yl)-N-[(2R)-1,1,1-trifluoro-3-hydroxypropan-2-yl]-6-[4-(trifluoromethoxy)phenyl]-2,3-dihydropyridazine-4-carboxamide] | > 20 µM | 0.00768 µM | 0.00989 µM
